Active and inactive are the calls of the source. The rule behind the calls is not given here.
Legend:
[1] = test system: Escherichia coli; experiment: Antibiofilm activity against Escherichia coli O157:H7 assessed as effect on rrsG expression at 20 ug/ml after 5 hrs by qRT-PCR analysis; format: functional, organism-based
[2] = test system: Escherichia coli; experiment: Antibiofilm activity against Escherichia coli O157:H7 assessed as repression of csgB expression at 20 ug/ml after 5 hrs by qRT-PCR analysis; format: functional, organism-based
[3] = test system: Escherichia coli; experiment: Antibiofilm activity against Escherichia coli O157:H7 after 24 hrs by spectrophotometry; format: functional, organism-based
[4] = test system: Escherichia coli; experiment: Antibiofilm activity against Escherichia coli O157:H7 assessed as induction of flhD gene expression at 20 ug/ml after 5 hrs by qRT-PCR analysis; format: functional, organism-based
[5] = test system: Escherichia coli; experiment: Antibiofilm activity against Escherichia coli O157:H7 assessed as repression of csgC expression at 20 ug/ml after 5 hrs by qRT-PCR analysis; format: functional, organism-based
[6] = test system: Escherichia coli; experiment: Antibiofilm activity against Escherichia coli O157:H7 assessed as induction of fliA gene expression at 20 ug/ml after 5 hrs by qRT-PCR analysis; format: functional, organism-based
[7] = test system: Escherichia coli; experiment: Reduction in fimbriae production in Escherichia coli O157:H7 biofilm grown on nylon filter at 20 ug/ml after 24 hrs by scanning electron microscopy; format: functional, organism-based
[8] = test system: Escherichia coli; experiment: Antibiofilm activity against Escherichia coli O157:H7 assessed as repression of csgD expression at 20 ug/ml after 5 hrs by qRT-PCR analysis; format: functional, organism-based
[9] = test system: Escherichia coli; experiment: Antibiofilm activity against Escherichia coli O157:H7 assessed as induction of qseB gene expression at 20 ug/ml after 5 hrs by qRT-PCR analysis; format: functional, organism-based
[10] = test system: Escherichia coli; experiment: Antimicrobial activity against Escherichia coli O157:H7 by spectrophotometry; format: organism-based; settings: in vivo
[11] = test system: Escherichia coli; experiment: Antibiofilm activity against Escherichia coli O157:H7 assessed as repression of csgA expression at 20 ug/ml after 5 hrs by qRT-PCR analysis; format: functional, organism-based
[12] = test system: Escherichia coli; experiment: Antibiofilm activity against Escherichia coli O157:H7 assessed as induction of motB gene expression at 20 ug/ml after 5 hrs by qRT-PCR analysis; format: functional, organism-based
[13] = test system: Escherichia coli; experiment: Antibiofilm activity against Escherichia coli O157:H7 assessed as repression of csgG expression at 20 ug/ml after 5 hrs by qRT-PCR analysis; format: functional, organism-based
[14] = test system: Escherichia coli; experiment: Antibiofilm activity against Escherichia coli O157:H7 assessed as repression of csgF expression at 20 ug/ml after 5 hrs by qRT-PCR analysis; format: functional, organism-based
[15] = test system: Pseudomonas aeruginosa; experiment: Antibiofilm activity against Pseudomonas aeruginosa PA14 after 24 hrs by spectrophotometry; format: functional, organism-based
[16] = test system: Escherichia coli; experiment: Antimicrobial activity against Escherichia coli O157:H7 assessed as growth inhibition up to 50 ug/ml by spectrophotometry; format: organism-based; settings: in vivo
[17] = test system: Pseudomonas aeruginosa; experiment: Antibiofilm activity against Pseudomonas aeruginosa PA14 after 24 hrs by GFP-based confocal laser microscopy; format: functional, organism-based
[18] = test system: Escherichia coli; experiment: Antibiofilm activity against Escherichia coli O157:H7 after 24 hrs by GFP-based confocal laser microscopy; format: functional, organism-based
[19] = test system: Pseudomonas aeruginosa; experiment: Antibiofilm activity against Pseudomonas aeruginosa PA14 assessed as growth inhibition at 50 ug/ml by spectrophotometry; format: functional, organism-based
[20] = test system: Escherichia coli; experiment: Antibiofilm activity against Escherichia coli O157:H7 at 5 ug/ml after 24 hrs by spectrophotometry; format: functional; settings: O157:H7, 24 h

Row | SMILES | Activity [1] | Activity [2] | inhibition [3] | Activity [4] | Activity [5] | Activity [6] | Activity [7] | Activity [8] | Activity [9] | growth inhibition (GI) [10] | Activity [11] | Activity [12] | Activity [13] | Activity [14] | inhibition [15] | Activity [16] | inhibition [17] | inhibition [18] | inhibition [19] | inhibition at 5 µg/mL [20] [%]
1 | Oc1ccc(/C=C/c2cc(O)cc3c2[C@@H](c2cc(O)cc(O)c2)[C@H](c2ccc(O)cc2)O3)cc1 [EPSILON-VINIFERIN] | inactive | Active | Dose-dependent effect | inactive | Active | inactive | Active | Active | inactive | Dose-dependent effect | Active | inactive | Active | Active |  |  |  |  |  | 
2 | Oc1ccc([C@H]2c3c(O)cc(O)cc3[C@H]3c4c(cc(O)cc4[C@@H]2c2cc(/C=C/c4cc(O)cc5c4[C@H](c4cc(O)cc(O)c4)[C@@H](c4ccc(O)cc4)O5)ccc2O)O[C@@H]3c2ccc(O)cc2)cc1 [VITISIN A] |  |  | inactive | inactive |  | inactive |  |  | inactive |  |  | inactive |  |  | Dose-dependent effect | Non-toxic | Active |  |  | 
3 | Oc1ccc([C@H]2Oc3cc(O)cc(/C=C/c4ccc5c(c4)[C@@H](c4cc(O)cc6c4[C@H](c4cc(O)cc(O)c4)[C@@H](c4ccc(O)cc4)O6)[C@H](c4ccc(O)cc4)O5)c3[C@@H]2c2cc(O)cc(O)c2)cc1 [VITISIN B] | inactive | Active | Dose-dependent effect | Active | Active | Active | Active | Active | Active |  | Active | Active | Active | Active | Dose-dependent effect | Non-toxic | Active | Dose-dependent effect | inactive | > 90
4 | Oc1ccc([C@@H]2c3c(O)cc(O)cc3[C@@H]3c4c(cc(O)c5c4[C@@H]2[C@@H](c2ccc(O)cc2)[C@@H]5c2cc(O)cc(O)c2)O[C@@H]3c2ccc(O)cc2)cc1 (relative stereo) |  |  | Dose-dependent effect | inactive |  | inactive |  |  | inactive |  |  | inactive |  |  | Dose-dependent effect |  | Active | Dose-dependent effect |  | 
5 | Oc1ccc([C@H]2c3c(O)cc(O)cc3[C@@H]3c4c(cc(O)c5c4[C@@H]2[C@@H](c2ccc(O)cc2)[C@@H]5c2cc(O)cc(O)c2)O[C@@H]3c2ccc(O)cc2)cc1 (relative stereo) | inactive | Active | Dose-dependent effect | inactive | Active | inactive |  | Active | inactive |  | Active | inactive | Active | Active | Dose-dependent effect |  | Active | Dose-dependent effect |  | 
6 | Oc1ccc(/C=C/c2cc(O)cc(O)c2)cc1 [RESVERATROL] | inactive | Active | Dose-dependent effect |  | Active |  | Active | Active |  | Dose-dependent effect | Active |  | Active | Active | Active |  | Active |  |  | 

— ChEMBL document CHEMBL3102829, “Resveratrol oligomers inhibit biofilm formation of Escherichia coli O157:H7 and Pseudomonas aeruginosa” (J Nat Prod, 2014)
